From patent publication US5985603A, “P2x receptor DNA and protein sequence” (Glaxo Group Limited, priority 1994, dated 1999)

How the values were obtained:
[1] = test system: non-transfected CHO cells; assay: electrophysiological recording in non-transfected CHO cells (control); type: cell-based, chinese hamster; details: up to 30 μM; 45 of 45 cells
Source text: CHO cells were stably transfected by a method used for other ion channels (Claudio, Meth. Enzymol. 207 391-408 (1992)). Transfection was confirmed by a) electro-physiological recording and b) radioligand binding. […] [^3 H]αβmethyleneATP binding was more than 600 cpm per million transfected cells with less than 80 cpm nonspecific binding.

[2] = target: T1, rat vas/human bladder P2X cDNA clone (Homo sapiens, UniProt P51575); assay: functional properties of cloned P2X receptors (electrical recordings): bladder; type: cell-based
T1 construct: expressed in transfected cells; host or cells: HEK293 cells (oocytes are also named for the functional characterisation)
T1 sequence (P51575 1-399): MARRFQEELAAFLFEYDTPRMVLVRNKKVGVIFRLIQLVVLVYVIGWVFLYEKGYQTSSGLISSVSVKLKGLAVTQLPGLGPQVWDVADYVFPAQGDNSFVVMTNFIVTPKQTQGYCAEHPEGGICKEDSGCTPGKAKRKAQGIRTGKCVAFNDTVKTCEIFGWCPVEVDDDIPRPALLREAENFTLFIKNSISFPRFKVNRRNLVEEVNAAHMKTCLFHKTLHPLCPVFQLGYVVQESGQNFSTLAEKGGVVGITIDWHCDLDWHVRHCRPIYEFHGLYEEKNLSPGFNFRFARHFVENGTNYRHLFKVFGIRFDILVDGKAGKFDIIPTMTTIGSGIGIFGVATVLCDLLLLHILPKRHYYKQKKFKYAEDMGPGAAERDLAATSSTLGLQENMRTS
Protocol: DNA concentration used was 1 mg/2 ml medium placed into a 35 mm petri dish containing four 11 mm diameter coverslips on which HEK cells were placed at 10,000 cells per coverslip. […] Currents were recorded from HEK 293 cells using whole-cell recording methods and the AXOPATCH™ 200 amplifier (Axon Instruments); patch pipettes (5 M.OMEGA.) contained (mM) Cs or K aspartate 140, NaCl 5, EGTA 11, HEPES 5. […] All recordings performed at room temperature. Data acquisition and analysis were performed using pCLAMP™ and AXOGRAPH™ software (Axon Instruments). […] ATP was applied by U-tube typically for 1 s; data was sampled at 5 kHz in 2 s segments beginning 300 ms prior to onset of agonist (ATP) application and filtered at 1 kHz.

[3] = target: T2, rat superior cervical ganglion P2X receptor (clone 3) (Rattus norvegicus, UniProt P51577); assay: functional properties of cloned P2X receptors (electrical recordings): clone 3; type: cell-based
T2 construct: The insert appeared to be a full length cDNA; expressed in transfected cells; host or cells: HEK293 cells transfected with pcDNA3 construct p464 (also oocytes injected with in vitro transcribed RNA)
T2 sequence (P51577 1-388): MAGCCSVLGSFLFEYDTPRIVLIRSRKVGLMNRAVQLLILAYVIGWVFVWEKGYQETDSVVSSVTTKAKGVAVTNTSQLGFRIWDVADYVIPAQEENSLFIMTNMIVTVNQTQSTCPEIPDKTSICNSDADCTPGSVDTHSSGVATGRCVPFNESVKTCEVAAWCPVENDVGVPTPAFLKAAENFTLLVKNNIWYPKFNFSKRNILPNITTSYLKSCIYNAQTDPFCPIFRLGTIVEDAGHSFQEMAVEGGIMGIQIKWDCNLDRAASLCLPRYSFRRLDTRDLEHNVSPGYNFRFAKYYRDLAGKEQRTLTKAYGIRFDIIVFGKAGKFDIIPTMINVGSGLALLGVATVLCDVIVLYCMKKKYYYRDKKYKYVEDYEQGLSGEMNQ

[4] = target: T3, rat vas deferens P2X receptor (Rattus norvegicus, UniProt P47824); assay: ATP-evoked currents, rat vas deferens P2X receptor clone in oocytes; type: cell-based; details: ATP (>1 μM), second application 10 mins after the first
T3 construct: cRNA in Xenopus oocytes; stably transfected CHO cells
T3 sequence (P47824 1-399): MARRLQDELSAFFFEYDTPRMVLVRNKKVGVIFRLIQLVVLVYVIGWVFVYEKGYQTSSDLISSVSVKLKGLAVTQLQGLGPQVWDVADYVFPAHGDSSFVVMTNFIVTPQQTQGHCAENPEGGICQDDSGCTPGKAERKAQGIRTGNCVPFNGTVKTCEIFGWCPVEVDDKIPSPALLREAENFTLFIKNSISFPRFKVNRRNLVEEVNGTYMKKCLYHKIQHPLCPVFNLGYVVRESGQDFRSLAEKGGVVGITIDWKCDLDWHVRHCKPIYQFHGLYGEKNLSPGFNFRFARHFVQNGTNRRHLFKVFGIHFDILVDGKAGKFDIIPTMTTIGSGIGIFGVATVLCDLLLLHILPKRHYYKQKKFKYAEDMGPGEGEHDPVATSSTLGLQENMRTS
Protocol: 50 nl (200 ng) of RNA was injected into defolliculated Xenopus oocytes. After incubation for 2-6 days at 18° C., the oocytes were assayed for ATP-evoked currents by a two-electrode voltage clamp ([…]™); one electrode is to hold the voltage constant (at -100 mV), and the other is to measure the currents. […] Microelectrodes (0.5-2 M.OMEGA.) were filled with 3M KCl.

For Nc1ncnc2c1ncn2[C@@H]1O[C@H](COP(=O)([O-])OP(=O)([O-])OP(=O)([O-])[O-])[C@@H](O)[C@H]1O.[Mg+2].[Mg+2] [ATP, adenosine 5'-triphosphate magnesium salt], the “effect in non-transfected cells” value [1] was “no effect in 45 of 45 non-transfected cells”, the EC50 [2] was 0.7 µM and the EC50 [3] was 11 µM. For the same compound, the “decline of currents (desensitisation) during application” value ([3]; applications of several seconds) was “little or no decline during applications of several seconds” and the “inward current evoked by second application, of the initial peak amplitude” value [4] was ~ 50%.
